Measurements as given in patent publication US20140024662A1, “COMPOUNDS, SCREENS, AND METHODS OF TREATMENT” (Shanghai Institute of Organic Chemistry, priority 2006, published 2014).
pEC50: −log10 of the molar value. “Also recorded” adds a separate entry of the source. Read-outs that look alike come from different tables or passages of the source.

System: FADD-deficient Jurkat cells
Assay: necroptosis assay: FADD-deficient Jurkat cells treated with TNFα, cell viability
Type: cell-based, human
Conditions: for activity in the necroptosis assay, in words / Max Prot: FADD-deficient Jurkat cells treated with TNFα; for EC50 / pEC50: effective concentration for half-maximum response, inhibition of necroptosis in FADD-deficient Jurkat cells treated with TNFα; for pEC50: read-out: EC50; for Max Prot: max viability obtained in the presence of a compound; call rule not given here
Excerpt: Herein we describe the structure activity analysis of Nec-5 analogs.

## CCCc1sc2nc(SCC#N)n(-c3ccc(OC)cc3)c(=O)c2c1C [Compound 69]
  activity in the necroptosis assay, in words: inactive
  EC50: inactive

## COc1ccc(-n2c(SCC#N)nc3sc(C(C)C)c(C)c3c2=O)cc1 [Compound 70]
  activity in the necroptosis assay, in words: inactive
  EC50: inactive

## CCCCCCCCCCCCCCc1sc2nc(SCC#N)n(-c3ccc(OC)cc3)c(=O)c2c1C [Compound 71]
  EC50: inactive

## CCc1c(C)sc2nc(SCC#N)n(-c3ccc(OC)cc3)c(=O)c12 [Compound 72]
  activity in the necroptosis assay, in words: preserved activity to a significant extent
  pEC50: 5.97
  Max Prot: 100%

## COc1ccc(-n2c(SCC#N)nc3sc4c(c3c2=O)CCC4)cc1 [Compound 73]
  activity in the necroptosis assay, in words: retained most of the activity; also recorded: showed activity; also recorded: exhibited a certain degree of activity
  pEC50: 6.35
  Max Prot: 100%

## COc1ccc(-n2c(SCC#N)nc3sc4c(c3c2=O)CCCCC4)cc1 [Compound 74]
  activity in the necroptosis assay, in words: less active; also recorded: exhibited a certain degree of activity
  pEC50: 6.02
  Max Prot: 83%

## COc1ccc(-n2c(SCC#N)nc3sc4ccccc4c3c2=O)cc1 [Compound 76]
  activity in the necroptosis assay, in words: retained most of the activity; also recorded: showed substantial activity; also recorded: showed good activity; also recorded: potent inhibitor; also recorded: exhibited a certain degree of activity
  pEC50: 6.74
  Max Prot: 83.3%

## CCN1CCc2c(sc3nc(SCC#N)n(-c4ccc(OC)cc4)c(=O)c23)C1 [Compound 77]
  activity in the necroptosis assay, in words: essentially inactive
  EC50: inactive

## COc1ccc(-n2c(SCC#N)nc3sc4c(c3c2=O)CCN(C(C)C)C4)cc1 [Compound 78]
  activity in the necroptosis assay, in words: essentially inactive
  EC50: inactive

## COc1ccc(-n2c(SC)nc3sccc3c2=O)cc1 [Compound 79]
  EC50: inactive

## COc1ccc(-n2c(SC)nc3scc(C)c3c2=O)cc1 [Compound 80]
  EC50: inactive

## COc1ccc(-n2c(SC)nc3sc(C)c(C)c3c2=O)cc1 [Compound 81]
  EC50: inactive

## CCc1c(C)sc2nc(SC)n(-c3ccc(OC)cc3)c(=O)c12 [Compound 82]
  EC50: inactive

## CCc1sc2nc(SC)n(-c3ccc(OC)cc3)c(=O)c2c1C [Compound 83]
  EC50: inactive

## CCCc1sc2nc(SC)n(-c3ccc(OC)cc3)c(=O)c2c1C [Compound 84]
  EC50: inactive

## COc1ccc(-n2c(SC)nc3sc(C(C)C)c(C)c3c2=O)cc1 [Compound 85]
  EC50: inactive

## CCCCCCCCCCCCCCc1sc2nc(SC)n(-c3ccc(OC)cc3)c(=O)c2c1C [Compound 86]
  EC50: inactive

## COc1ccc(-n2c(SC)nc3sc4c(c3c2=O)CCC4)cc1 [Compound 87]
  activity in the necroptosis assay, in words: displayed higher activity than each change separately enacted
  pEC50: 6.62
  Max Prot: 97.0%

## COc1ccc(-n2c(SC)nc3sc4c(c3c2=O)CCCCC4)cc1 [Compound 88]
  activity in the necroptosis assay, in words: lack of activity
  EC50: inactive

## COc1ccc(-n2c(SC)nc3sc4ccccc4c3c2=O)cc1 [Compound 90]
  activity in the necroptosis assay, in words: potent inhibitor
  pEC50: 6.62
  Max Prot: 77%

## CCN1CCc2c(sc3nc(SC)n(-c4ccc(OC)cc4)c(=O)c23)C1 [Compound 91]
  EC50: inactive

## COc1ccc(-n2c(SC)nc3sc4c(c3c2=O)CCN(C(C)C)C4)cc1 [Compound 92]
  EC50: inactive

## CCSc1nc2sc3c(c2c(=O)n1-c1ccc(OC)cc1)CCC3 [Compound 93]
  EC50: inactive

## CCCSc1nc2sc3c(c2c(=O)n1-c1ccc(OC)cc1)CCC3 [Compound 94]
  EC50: inactive

## CCCCSc1nc2sc3c(c2c(=O)n1-c1ccc(OC)cc1)CCC3 [Compound 95]
  EC50: inactive

## CCCCCSc1nc2sc3c(c2c(=O)n1-c1ccc(OC)cc1)CCC3 [Compound 96]
  EC50: inactive

## C=CCSc1nc2sc3c(c2c(=O)n1-c1ccc(OC)cc1)CCC3 [Compound 97]
  EC50: inactive

## C#CCSc1nc2sc3c(c2c(=O)n1-c1ccc(OC)cc1)CCC3 [Compound 98]
  pEC50: 5.60
  Max Prot: 63.4%

## COc1ccc(-n2c(SCc3ccccc3)nc3sc4c(c3c2=O)CCC4)cc1 [Compound 99]
  EC50: inactive

## COc1ccc(-n2c(SCc3ccc([N+](=O)[O-])cc3)nc3sc4c(c3c2=O)CCC4)cc1 [Compound 100]
  EC50: inactive

## COc1ccc(-n2c(SCC(C)=O)nc3sc4c(c3c2=O)CCC4)cc1 [Compound 101]
  EC50: inactive

## COc1ccc(-n2c(SC[N+](=O)[O-])nc3sc4c(c3c2=O)CCC4)cc1 [Compound 102]
  EC50: inactive

## COc1ccc(-n2c(SCCO)nc3sc4c(c3c2=O)CCC4)cc1 [Compound 103]
  pEC50: 5.15
  Max Prot: 100%

## C#CCSc1nc2sccc2c(=O)n1-c1ccc(OC)cc1 [Compound 104]
  EC50: inactive

## C#CCSc1nc2scc(C)c2c(=O)n1-c1ccc(OC)cc1 [Compound 105]
  EC50: inactive

## C#CCSc1nc2sc(C)c(C)c2c(=O)n1-c1ccc(OC)cc1 [Compound 106]
  activity in the necroptosis assay, in words: possess some activity
  pEC50: 5.31
  Max Prot: 90.3%

## C#CCSc1nc2sc(CC)c(C)c2c(=O)n1-c1ccc(OC)cc1 [Compound 107]
  EC50: inactive

## C#CCSc1nc2sc(CCC)c(C)c2c(=O)n1-c1ccc(OC)cc1 [Compound 108]
  EC50: inactive

## C#CCSc1nc2sc3c(c2c(=O)n1-c1ccc(OC)cc1)CCCCC3 [Compound 109]
  EC50: inactive

## CCSc1nc2sc(C)c(C)c2c(=O)n1-c1ccc(OC)cc1 [Compound 110]
  activity in the necroptosis assay, in words: inactive
  EC50: inactive

## CCSc1nc2sc(CC)c(C)c2c(=O)n1-c1ccc(OC)cc1 [Compound 111]
  EC50: inactive

## CCSc1nc2sc3c(c2c(=O)n1-c1ccc(OC)cc1)CCCCC3 [Compound 112]
  EC50: inactive

## COc1ccc(-n2c(SCCC#N)nc3sc(C)c(C)c3c2=O)cc1 [Compound 113]
  EC50: inactive

## COc1ccc(-n2c(SCCO)nc3sc(C)c(C)c3c2=O)cc1 [Compound 114]
  activity in the necroptosis assay, in words: possess some activity
  pEC50: 5.14
  Max Prot: 78%

## CCc1sc2nc(SCCO)n(-c3ccc(OC)cc3)c(=O)c2c1C [Compound 115]
  EC50: inactive

## CCCc1sc2nc(SCCO)n(-c3ccc(OC)cc3)c(=O)c2c1C [Compound 116]
  EC50: inactive

## CCCc1sc2nc(SCC)n(-c3ccc(OC)cc3)c(=O)c2c1C [Compound 117]
  EC50: inactive

## COc1ccc(-n2c(SCC(=O)O)nc3sc(C)c(C)c3c2=O)cc1 [Compound 118]
  EC50: inactive

## Cc1sc2nc(SCC#N)n(-c3ccc(F)cc3)c(=O)c2c1C [Compound 119]
  pEC50: 5.35
  Max Prot: 87.6%

## CCc1sc2nc(SCC#N)n(-c3ccc(F)cc3)c(=O)c2c1C [Compound 120]
  EC50: inactive

## N#CCSc1nc2sc3c(c2c(=O)n1-c1ccc(F)cc1)CCC3 [Compound 121]
  pEC50: 6.05
  Max Prot: 88.7%

## N#CCSc1nc2sc3c(c2c(=O)n1-c1ccc(F)cc1)CCCCC3 [Compound 122]
  activity in the necroptosis assay, in words: completely lacked activity
  EC50: inactive

## CSc1nc2sc(C)c(C)c2c(=O)n1-c1ccc(F)cc1 [Compound 123]
  pEC50: 5.59
  Max Prot: 69.2%

## CCc1sc2nc(SC)n(-c3ccc(F)cc3)c(=O)c2c1C [Compound 124]
  EC50: inactive

## CSc1nc2sc3c(c2c(=O)n1-c1ccc(F)cc1)CCC3 [Compound 125]
  pEC50: 5.52
  Max Prot: 95%

## Cc1sc2nc(SCC#N)n(-c3ccc4c(c3)OCO4)c(=O)c2c1C [Compound 127]
  pEC50: 5.78
  Max Prot: 100%

## CCc1c(C)sc2nc(SCC#N)n(-c3ccc4c(c3)OCO4)c(=O)c12 [Compound 128]
  pEC50: 5.72
  Max Prot: 100%

## N#CCSc1nc2sc3c(c2c(=O)n1-c1ccc2c(c1)OCO2)CCC3 [Compound 129]
  pEC50: 5.93
  Max Prot: 100%

## CSc1nc2sc(C)c(C)c2c(=O)n1-c1ccc2c(c1)OCO2 [Compound 130]
  pEC50: 5.95
  Max Prot: 67.0%

## CCc1c(C)sc2nc(SC)n(-c3ccc4c(c3)OCO4)c(=O)c12 [Compound 131]
  activity in the necroptosis assay, in words: inactive
  EC50: inactive

## CSc1nc2sc3c(c2c(=O)n1-c1ccc2c(c1)OCO2)CCC3 [Compound 132]
  activity in the necroptosis assay, in words: inactive
  EC50: inactive

## N#CCSc1nc2sc3c(c2c(=O)n1-c1ccc2c(c1)OCCO2)CCC3 [Compound 133]
  pEC50: 6.60
  Max Prot: 100%

## N#CCSc1nc2sc3c(c2c(=O)n1-c1ccc2c(c1)OCCO2)CCCC3 [Compound 134]
  pEC50: 6.66
  Max Prot: 100%

## N#CCSc1nc2sc3ccccc3c2c(=O)n1-c1ccc2c(c1)OCCO2 [Compound 135]
R5 ethylene dioxy compared with para-methoxy
  increase in activity versus para-methoxy: ~2 fold
  pEC50: 6.82
  Max Prot: 100%

## Cc1sc2nc(SCC#N)n(-c3ccc4c(c3)OCCO4)c(=O)c2c1C [Compound 136]
  pEC50: 6.60
  Max Prot: 100%

## Cc1ccc(-n2c(SCC#N)nc3sc(C)c(C)c3c2=O)cc1C [Compound 137]
  activity in the necroptosis assay, in words: showed higher activity than compound (43)
  pEC50: 5.55
  Max Prot: 90.7%

## Cc1ccc(-n2c(SCC#N)nc3sc4c(c3c2=O)CCC4)cc1C [Compound 139]
  activity in the necroptosis assay, in words: essentially inactive
  EC50: inactive

## CSc1nc2sc(C)c(C)c2c(=O)n1-c1ccc(C)c(C)c1 [Compound 140]
  EC50: inactive
